Tests used:
[1] = test system: adolescent MDD patients living at high altitude; test: Clinical study of creatine monohydrate in adolescent MDD patients living at high altitude (CDRS); format: in vivo, human; details: adolescents with MDD, Salt Lake City (4,300 feet), 5 g/day creatine monohydrate as a powder, 1 to 10 weeks
Procedure: Clinical assessment was performed using the Children's Depression Rating Scale (CDRS).
A clinical study was performed to determine the effect of creatine on adolescent MDD patients living at high altitude (Salt Lake City; elevation of 4,300 feet). In this study, three adolescents diagnosed as having MDD and living at high altitude were administered 5 g/day of creatine monohydrate (as a powder). The subjects in the study were monitored using the Children's Depression Rating Scale (CDRS). The study was performed for 1 to 10 weeks.

male MDD subjects = test: Clinical study of creatine monohydrate in male MDD subjects (HAMD, BDI); format: in vivo, human; details: 5 g/day creatine monohydrate as a powder vs placebo, 0 to 8 weeks, FIGS. 1A and 1B
Procedure: FIGS. 1A and 1B show clinical assessment data of male subjects having MDD upon treatment with placebo (grey lines) or creatine monohydrate (5 g/day, black lines) for 0 to 8 weeks. Clinical assessment was performed using the Hamilton Depressing Rating Scale (FIG. 1A) or the Beck Depression Inventory scale (FIG. 1B).
A clinical study was performed to study the effect of creatine administration on male MDD subjects. A total of 6 male subjects (mean age of 42.7 years; age range 27 to 63) were enrolled in this study. Among the subjects, 5 subjects (mean age of 38.6 years; age range of 27 to 59) underwent at least one follow-up assessment. Three subjects received 5 g/day creatine monohydrate (as a powder), and two subjects received a placebo. The MDD symptoms of the subjects were assessed using the Hamilton Depression Rating Scale (HAMD) (FIG. 1A) or the Beck Depression Inventory (BDI) (FIG. 1B). The baseline HAMD total score for intention-to-treat sample was 30.4 (standard deviation of 5.1) and the baseline BDI total score was 31 (standard deviation of 11.3).

CN(CC(=O)O)C(=N)N.O [creatine, creatine monohydrate]
symptoms of MDD in patients living at high altitude [1]: reduces the symptoms of MDD in patients living at high altitude
Children's Depression Rating Scale (CDRS) score ([1]; after failing an SSRI trial, FIG. 2): reduction in CDRS score
symptoms of MDD, Hamilton Depression Rating Scale (HAMD) and Beck Depression Inventory (BDI) (male MDD subjects): reduces the symptoms of MDD in male subjects

From patent US20130281410A1, “METHODS FOR THE TREATMENT OF PSYCHIATRIC DISORDERS” (University of Utah Research Foundation, priority 2010, published 2013)
